Earlier results as cited in patent publication US20030144252A1, “Combination product comprising a non-steroidal antiandrogen and an egfr tyrosine kinase inhibitor” (priority 2000, published 2003).

Key:
[1] = system: LNCaP prostate cancer cell line
androgen receptor = conditions: LNCaP prostate cancer cell line

Structure (SMILES)	block of EGF induced cell growth [1]	block of HER2/neu protein induced activation of the androgen receptor (androgen receptor)
CC(O)(CS(=O)(=O)c1ccc(F)cc1)C(=O)Nc1ccc(C#N)c(C(F)(F)F)c1 (centres unmarked) [bicalutamide, 4′-cyano-3-(4-fluorophenylsulphonyl)-2-hydroxy-2-methyl-3′-(trifluoromethyl)propionanilide]	could partially block	
CC(C)(O)C(=O)Nc1ccc([N+](=O)[O-])c(C(F)(F)F)c1 [hydroxyflutamide]		could partially block
